Laboratory results taken from ChEMBL document CHEMBL1153976, “Synthesis and cytotoxicity of 2-cyano-28-hydroxy-lup-1-en-3-ones” (Bioorg Med Chem Lett, 2009).

Key:
[1] = test system: OVCAR-3; assay: Antiproliferative activity against human OVCAR-3 cells after 120 hrs by MTS assay; format: functional, cell-based; conditions: OVCAR-3, 120 h
[2] = test system: SK-MEL-2; assay: Antiproliferative activity against human SK-MEL-2 cells after 72 hrs by MTS assay; format: functional, cell-based; conditions: SK-MEL-2, 72 h
[3] = test system: MCF7; assay: Antiproliferative activity against human MCF7 cells after 72 hrs by MTS assay; format: functional, cell-based; conditions: MCF7, 72 h
[4] = test system: Daoy; assay: Antiproliferative activity against human DaOY cells after 72 hrs by MTS assay; format: cell-based
[5] = test system: HT-29; assay: Antiproliferative activity against human HT-29 cells after 72 hrs by MTS assay; format: functional, cell-based; conditions: HT-29, 72 h
[6] = test system: A-375; assay: Antiproliferative activity against human A375 cells after 72 hrs by MTS assay; format: functional, cell-based; conditions: A-375, 72 h
[7] = Antiproliferative activity against human LN229 cells after 72 hrs by MTS assay; format: functional, cell-based; conditions: LN-229, 72 h
[8] = test system: SK-MEL-2; assay: Induction of apoptosis in human SK-MEL-2 cells assessed as increase in caspase activation at 50 uM after 8 hrs by homogenous assay relative to control; format: functional
[9] = test system: SK-MEL-2; assay: Induction of apoptosis in human SK-MEL-2 cells assessed as apoptotic cells at 50 uM after 8 hrs by annexin V assay; format: functional
[10] = test system: SK-MEL-2; assay: Induction of apoptosis in human SK-MEL-2 cells assessed as necrotic cells at 50 uM after 8 hrs by annexin V assay; format: functional
[11] = test system: SK-MEL-2; assay: Induction of apoptosis in human SK-MEL-2 cells assessed as increase in caspase activation at 5 uM after 8 hrs by homogenous assay relative to control; format: functional
[12] = test system: SK-MEL-2; assay: Induction of apoptosis in human SK-MEL-2 cells assessed as apoptotic cells at 50 uM after 8 hrs by annexin V assay in presence of z-VAD; format: functional
[13] = test system: SK-MEL-2; assay: Induction of apoptosis in human SK-MEL-2 cells assessed as necrotic cells at 50 uM after 8 hrs by annexin V assay in presence of z-VAD; format: functional

Row | SMILES | IC50 [1] [µM] | IC50 [2] [µM] | IC50 [3] [µM] | IC50 [4] [µM] | IC50 [5] [µM] | IC50 [6] [µM] | IC50 [7] [µM] | fold change (FC) [8] | Activity [9] [%] | Activity [10] [%] | fold change (FC) [11] | Activity [12] [%] | Activity [13] [%] | Activity [11] [%]
1 | C=C(C)[C@@H]1CC[C@]2(COC3CCCCO3)CC[C@]3(C)[C@H](CC[C@@H]4[C@@]5(C)CC(C#N)C(=O)C(C)(C)[C@@H]5CC[C@]43C)[C@@H]12 (some centres undefined) | > 75 | 19 | 25 | 29 | > 75 | 38 | > 75 | – | – | – | – | – | – | –
2 | C=C(C)[C@@H]1CC[C@]2(COC3CCCCO3)CC[C@]3(C)[C@H](CC[C@@H]4[C@@]5(C)C=C(C#N)C(=O)C(C)(C)[C@@H]5CC[C@]43C)[C@@H]12 (some centres undefined) | > 75 | 23 | > 75 | 14 | > 75 | 12 | 21 | – | – | – | – | – | – | –
3 | CC(C)[C@@H]1CC[C@]2(C(=O)O)CC[C@]3(C)[C@H](CC[C@@H]4[C@@]5(C)C=C(C#N)C(=O)C(C)(C)[C@@H]5CC[C@]43C)[C@@H]12 | 24 | 59 | 59 | 71 | 18 | 16 | 30 | – | – | – | – | – | – | –
4 | C=C(C)[C@@H]1CC[C@]2(CO)CC[C@]3(C)[C@H](CC[C@@H]4[C@@]5(C)C=C(C#N)C(=O)C(C)(C)[C@@H]5CC[C@]43C)[C@@H]12 | 7 | 7 | 25 | 8 | 8 | 6 | 6 | 8 | 24 | 3 | 2 | 7 | 4 | –
5 | C=C(C)[C@@H]1CC[C@]2(CO)CC[C@]3(C)[C@H](CC[C@@H]4[C@@]5(C)Cc6cnoc6C(C)(C)[C@@H]5CC[C@]43C)[C@@H]12 | 60 | 8 | 25 | 8 | 10 | – | > 75 | – | – | – | – | – | – | –
6 | C=C(C)[C@@H]1CC[C@]2(C=O)CC[C@]3(C)[C@H](CC[C@@H]4[C@@]5(C)C=C(C#N)C(=O)C(C)(C)[C@@H]5CC[C@]43C)[C@@H]12 | > 75 | 40 | > 75 | 13 | 49 | 7 | > 75 | – | – | – | – | – | – | –
7 | C=C(C)[C@@H]1CC[C@]2(CO)CC[C@]3(C)[C@H](CC[C@@H]4[C@@]5(C)CC(C#N)C(=O)C(C)(C)[C@@H]5CC[C@]43C)[C@@H]12 (some centres undefined) | > 75 | 42 | 68 | 44 | 72 | > 75 | > 75 | – | – | – | – | – | – | –
8 | CC(C)[C@@H]1CC[C@]2(COC3CCCCO3)CC[C@]3(C)[C@H](CC[C@@H]4[C@@]5(C)CC(C#N)C(=O)C(C)(C)[C@@H]5CC[C@]43C)[C@@H]12 (some centres undefined) | – | 25 | > 75 | 21 | > 75 | 48 | 45 | – | – | – | – | – | – | –
9 | CC(C)[C@@H]1CC[C@]2(CO)CC[C@]3(C)[C@H](CC[C@@H]4[C@@]5(C)C=C(C#N)C(=O)C(C)(C)[C@@H]5CC[C@]43C)[C@@H]12 | 8 | 6 | > 75 | 9 | 7 | 4 | – | – | – | – | – | – | – | –
10 | CC(C)[C@@H]1CC[C@]2(CO)CC[C@]3(C)[C@H](CC[C@@H]4[C@@]5(C)Cc6cnoc6C(C)(C)[C@@H]5CC[C@]43C)[C@@H]12 | 75 | 8 | > 75 | 7 | 75 | 10 | > 75 | – | – | – | – | – | – | –
11 | C=C(C)[C@@H]1CC[C@]2(C(=O)O)CC[C@]3(C)[C@H](CC[C@@H]4[C@@]5(C)C=C(C#N)C(=O)C(C)(C)[C@@H]5CC[C@]43C)[C@@H]12 | > 75 | > 75 | > 75 | > 75 | 38 | > 75 | 18 | – | – | – | – | – | – | –
12 | C=C(C)[C@@H]1CC[C@]2(C(=O)O)CC[C@]3(C)[C@H](CC[C@@H]4[C@@]5(C)CC[C@H](O)C(C)(C)[C@@H]5CC[C@]43C)[C@@H]12 [BETULINIC ACID] | 59 | 33 | 50 | 31 | 37 | 51 | 61 | 2.6 | – | – | – | – | – | 70
